Experimental data as given in patent EP0294695A2, “New polyoxygenated labdane derivatives, a process for their preparation, and their use as medicaments” (HOECHST AKTIENGESELLSCHAFT, priority 1987, dated 1988).

Experiment: reduction of intraocular pressure
Type: in vivo
Conditions: 2% strength solution of the test compound; for Duration: duration of the decrease in intraocular pressure
Description: The results of investigations into the reduction of intraocular pressure by some typical compounds of the formula I, according to the invention, are listed in Table 2. The results are expressed as the percentage decrease in the intraocular pressure when a 2% strength solution of the test compound is used.

C=C[C@@]1(C)CC(=O)[C@]2(O)[C@@]3(C)[C@@H](OC(=O)Nc4ccccc4)CCC(C)(C)[C@@H]3[C@H](O)[C@H](OC(=O)Nc3ccccc3)[C@@]2(C)O1 [Compound 1]
Decrease in intraocular pressure(%): 18%
Duration: 5 h

C=C[C@@]1(C)CC(=O)[C@]2(O)[C@@]3(C)[C@@H](O)CCC(C)(C)[C@@H]3[C@H](O)[C@H](OC(=O)NC)[C@@]2(C)O1 [Compound 2, 8,13-Epoxy-7β-methylaminocarbonyloxy-1α,6β,9α-trihydroxylabd-14-en-11-one]
Decrease in intraocular pressure(%): 23%
Duration: 5 h

C=C[C@@]1(C)CC(=O)[C@]2(O)[C@@]3(C)[C@@H](O)CCC(C)(C)[C@@H]3[C@H](O)[C@H](OC(=O)NC(C)C)[C@@]2(C)O1 [Compound 3, 7β-isopropylaminocarbonyloxy-8,13-epoxy-1α,6β,9α-trihydroxylabd-14-en-11-one]
Decrease in intraocular pressure(%): 34%
Duration: 6 h

C=C[C@@]1(C)CC(=O)[C@]2(O)[C@@]3(C)[C@@H](O)CCC(C)(C)[C@@H]3[C@H](O)[C@H](OC(=O)NC(C)(C)C)[C@@]2(C)O1 [Compound 4, 7β-t-Butylaminocarbonyloxy-8,13-epoxy-1α,6β9α-trihydroxylabd-14-en-11-one]
Decrease in intraocular pressure(%): 21%
Duration: 6 h
